These results are taken from ChEMBL document CHEMBL1143207, “New 7,8-benzoflavanones as potent aromatase inhibitors: synthesis and biological evaluation” (Bioorg Med Chem, 2008).

Each structure is given as a SMILES string.

The assay deals with T1, Aromatase (Homo sapiens, UniProt P11511).
T1 sequence (P11511 whole entry): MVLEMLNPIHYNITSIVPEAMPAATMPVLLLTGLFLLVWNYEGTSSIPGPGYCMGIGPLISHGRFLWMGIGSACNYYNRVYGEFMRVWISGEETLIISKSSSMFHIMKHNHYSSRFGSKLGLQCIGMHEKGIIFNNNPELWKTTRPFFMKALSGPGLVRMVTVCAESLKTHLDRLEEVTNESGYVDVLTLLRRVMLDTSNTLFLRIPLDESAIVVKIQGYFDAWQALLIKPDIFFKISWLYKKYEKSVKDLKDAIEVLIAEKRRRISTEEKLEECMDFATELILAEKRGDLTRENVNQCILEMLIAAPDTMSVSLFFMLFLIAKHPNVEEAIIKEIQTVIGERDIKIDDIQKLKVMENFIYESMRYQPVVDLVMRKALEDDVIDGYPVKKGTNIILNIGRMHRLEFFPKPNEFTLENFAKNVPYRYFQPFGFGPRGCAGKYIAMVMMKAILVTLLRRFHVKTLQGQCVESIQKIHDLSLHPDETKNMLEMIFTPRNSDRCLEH
Format: microsomes, Placenta, Microsomes.
Description: Inhibition of human aromatase in placental microsomes

One may read the IC50 as the concentration that gives 50% inhibition. Higher therefore signals weaker potency. With `O=C1CC(c2cccc(O)c2)Oc2cc(O)ccc21` (configuration not stated), the IC50 came to 3400 nM.
To `O=C1CC(c2ccccc2)Oc2c1ccc1ccccc21` (configuration not stated) belongs 4300 nM; to `N#Cc1cccc(C2CC(=O)c3ccc4ccccc4c3O2)c1` (configuration not stated), 1370 nM.
To `O=C1CC(c2ccc(O)cc2)Oc2c1ccc1ccccc21` (configuration not stated) belongs 630 nM; to `O=C1C[C@@H](c2ccc(O)cc2)Oc2cc(O)ccc21` [LIQUIRTIGENIN], 2100 nM.
To `N#Cc1ccc(C2CC(=O)c3ccc4ccccc4c3O2)cc1` (configuration not stated) belongs 1540 nM.
Consider `O=C1CC(c2cccc(O)c2)Oc2c1ccc1ccccc21` (configuration not stated), for which the IC50 was 610 nM.
